The values below come from patent US9072778B2, “Treatment regimen for N-MYC, c-MYC, and L-MYC amplified and overexpressed tumors” (UNIVERSITY OF HAWAII, priority 2005, dated 2015).

SMILES strings stand for the structures.

The test system of one assay is MYCN. Briefly: Western blot of MYCN in inhibitor-treated NB cells. It counts as cell-based, human. To be noted: LAN-1 and NMB-7; 5 mM DFMO, 10 μM SAM486A (FIG. 7c). An excerpt: It has also been shown that MYCN can regulate p27^Kip1 in NB cells by targeting p27^Kip1 to the proteasome (Nakamura et al., (2003) Cell Death Differ, 10, 230-9, which is incorporated herein by reference in its entirety), and it is therefore possible that the observed increase in p27^Kip1 is in response to a decrease in MYCN. […] The regulation of ODC by MYCN has been previously proposed (Ben-Yosef et al., (1998) Oncogene, 17, 165-71; Lu et al., (2003) Cancer Lett, 197, 125-30; Lutz et al., (1996) Oncogene, 13, 803-12, each of which is incorporated herein by reference in its entirety), but has not been definitively confirmed. The precise mechanism by which polyamines regulate MYCN in NB cells remains to be further clarified.
To further investigate the mechanism that regulates G1 arrest in LAN-1 and NMB-7 cells, and to define the changes in associated protein responses, the cell cycle-related proteins p21^Waf1/Cip1, p27^Kip1, p53, Rb, and MYCN in NB cell lysates were studied. Cells were analyzed on days 1, 2, and 3. Equal amounts of total protein were loaded in all experiments. Proteins were scanned and the ratio of hypophosphorylated Rb (pRb) (lower band):hyperphosphorylated Rb (ppRb) (upper band) was calculated (b). MYCN bands were quantified and normalized relative to β-actin. Values are presented as percentage (%) of controls of day 1, 2 or 3. (c). […]
Background: Immunoblotting shows a protein as a band on a membrane.

The next assay concerns the target T1, ODC (Homo sapiens, UniProt P11926).
T1 construct: enzyme activities were measured in cell lysates; endogenous in cells
T1 sequence (P11926 1-461): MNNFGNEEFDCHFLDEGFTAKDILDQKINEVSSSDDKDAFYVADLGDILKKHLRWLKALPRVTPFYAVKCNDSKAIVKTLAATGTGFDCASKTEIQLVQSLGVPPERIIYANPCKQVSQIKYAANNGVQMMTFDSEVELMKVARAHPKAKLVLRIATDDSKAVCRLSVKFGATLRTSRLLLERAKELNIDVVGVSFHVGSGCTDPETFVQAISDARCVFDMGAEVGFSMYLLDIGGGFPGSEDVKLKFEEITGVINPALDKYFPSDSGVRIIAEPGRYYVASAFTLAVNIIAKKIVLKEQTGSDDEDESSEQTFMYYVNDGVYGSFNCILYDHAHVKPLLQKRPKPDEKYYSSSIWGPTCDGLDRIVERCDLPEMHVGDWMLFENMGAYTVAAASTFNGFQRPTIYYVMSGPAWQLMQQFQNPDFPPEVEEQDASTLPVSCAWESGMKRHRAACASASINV
As to the kind of experiment: ODC enzyme activity in lysates of inhibitor-treated NB cells. In kind it is cell-based. To be noted: DFMO = 5 mM, SAM486A = 10 μM, mean ± SD. Here is the method: (§1) Human NB cell lines were provided by Dr. Robert Seeger (LAN-1; University of California, Los Angeles, Calif.), Dr. Nai-Kong Cheung (NMB-7; Memorial Sloan-Kettering Cancer Center, NY), and the American Type Culture Collection (SK-N-SH; ATCC, Manassas, Va.). Cells were maintained in RPMI 1640 (Biosource, Rockeville, Md.) containing 10% heat-inactivated fetal bovine serum (FBS) (Invitrogen, Carlsbad, Calif.), penicillin (100 IU/ml) and streptomycin (100 μg/ml). If cells were treated with exogenous Spd, 1 mM of aminoguanidine was included as an inhibitor of serum polyamine oxidation. […] For growth and proliferation inhibition, polyamine pool, and cell cycle studies, 10 μM Spd was added together with inhibitors, and cells were assayed on days 2 and/or 3.
(§2) ODC and AdoMetDC enzyme activities were determined using a standard assay known in the art. In brief, NB cells were washed twice with ice-cold PBS and harvested in 50 mM sodium phosphate buffer (pH 7.2), 0.1 mM EDTA, 2.5 mM DTT, supplemented with 1× protease inhibitor cocktail (Roche Molecular Biochemicals, Indianapolis, Ind.). For the measurement of AdoMetDC activity, cells were harvested in the above buffer supplemented with 2.5 mM Put. Cells were lysed by three freeze/thaw cycles and cell lysates were prepared by centrifugation for 20 minutes at 14,000 rpm and 4° C. ODC activity was measured in a reaction mixture that contained 20 μM L-[1-^14C]ornithine (47.70 mCi/mmol; NEN Life Science Products, Boston, Mass.). AdoMetDC activity was assayed in a reaction mixture that contained 8.2 μM S-adenosyl-L-[carboxy-^14C]methionine (58.0-61.0 mCi/mmol; Amersham Biosciences, Piscataway, N.J.) and 140.1 μM cold S-adenosylmethionine. […] Untreated or SAM486A-treated LAN-1 extracts were assayed for AdoMetDC activity after multiple rounds of sequential dilution with harvest buffer followed by concentration of the extract (Centricon YM-10, Millipore Corporation, Bedford, Mass.) to remove the inhibitor.

The target in the next assay is T2, AdoMetDC (Homo sapiens, UniProt P17707).
T2 construct: processed AdoMetDC α chain (31 kDa) proteins were detected at the expected size in LAN-1 and NMB-7 cells; endogenous in cells; host or cells: LAN-1 and NMB-7 human neuroblastoma cells (LAN-1 only for the Western blot of treated cells)
T2 sequence (P17707 68-334 limits assumed): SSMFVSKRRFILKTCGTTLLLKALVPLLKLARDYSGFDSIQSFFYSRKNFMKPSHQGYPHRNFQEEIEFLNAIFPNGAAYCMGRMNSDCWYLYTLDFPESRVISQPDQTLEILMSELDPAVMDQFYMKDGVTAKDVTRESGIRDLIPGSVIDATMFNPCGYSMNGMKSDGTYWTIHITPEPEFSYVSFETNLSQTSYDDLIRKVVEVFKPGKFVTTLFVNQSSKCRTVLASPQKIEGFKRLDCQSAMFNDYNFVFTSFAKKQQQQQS
T2 sequence (P17707 1-67 limits assumed): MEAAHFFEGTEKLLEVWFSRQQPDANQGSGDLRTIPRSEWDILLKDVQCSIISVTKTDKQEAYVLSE
As to the kind of experiment: AdoMetDC enzyme activity in lysates of inhibitor-treated NB cells. It counts as cell-based. The settings on record: for Specific enzyme activity ADOMETDC: DFMO = 5 mM, SAM486A = 10 μM, mean ± SD. Here is the method:
Under identical experimental conditions, AdoMetDC activity was determined.
as §1, §2

For the molecule `N=C(N)c1cccc2c1CC/C2=N\N=C(N)N` [SAM486A, 4-amidinoindan-1-one 2′-amidinohydrazone], in the assay on MYCN, the MYCN protein result is “almost no effect”. Moreover, the “Specific enzyme activity ODC” value on ODC (LAN-1, 2 days after treatment) is 240 ± 27 % OF CONTROL; at ODC (NMB-7, 2 days after treatment), 251 ± 42 % OF CONTROL. Besides, the “Specific enzyme activity ADOMETDC” value at AdoMetDC (LAN-1, 2 days after treatment) is given as 169 ± 9 % OF CONTROL; at AdoMetDC (NMB-7, 2 days after treatment), 200 ± 16 % OF CONTROL. Moreover, at AdoMetDC (SAM486A-treated LAN-1 extracts, data not shown), the “increase of measured AdoMetDC activity after sequential dilution and concentration of lysates to remove residual inhibitor” value was roughly 100 fold.

`NCCC[C@](N)(C(=O)O)C(F)F` [DFMO, α-difluoromethylornithine]: in the assay with MYCN, the MYCN protein entry is listed as “strong downregulation”. For the same molecule, the “Specific enzyme activity ODC” value worked out at 26 ± 2 % OF CONTROL on ODC (LAN-1, 2 days after treatment) and 25 ± 8 % OF CONTROL at ODC (NMB-7, 2 days after treatment). For the same molecule, the “Specific enzyme activity ADOMETDC” value amounted to 689 ± 94 % OF CONTROL at AdoMetDC (LAN-1, 2 days after treatment) and 582 ± 67 % OF CONTROL on AdoMetDC (NMB-7, 2 days after treatment).
